Experiments:
GR-HP1γ interaction = assay: Proximity ligation assay of GR and HP1γ in A549 cells; format: cell-based, human
Method: The experiments were performed following the manufacturer's instructions as previously described. Cells were grown on coverslips in 12-well plates, fixed in methanol for 2 min, and then washed twice in PBS. Firstly, the samples were saturated using the blocking solution, then different pairs of primary antibodies (HP1γ (Abcam ab10480) and GR (Santa Cruz sc-393232) in order to analyze HP1γ-GR, G9a (Sigma G6919) and HP1γ (Abcam ab56978) in order to analyze HP1γ-G9a interaction and HA-Tag (6E2) (Cell signaling #2367) and HP1γ (Abcam ab10480) in order to analyze HA- HP1γ interaction) were incubated with the fixed cells for 1 h at 37° C. […] Afterwards, the samples were mounted with Duolink II Mounting Medium containing Dapi in order to counterstain nuclei, and then analyzed on Zeiss Imager.Z1 fluorescence microscope. For each sample interactions were counted for 1000 cells using Image J software [46b].
The results as shown in FIGS. 18A-18E generally highlight that G9a and GLP methylation is required for HP1γ-G9a/GLP-GR ternary complex formation. […] The detected interactions are indicated by red dots. […] The number of interactions detected by Image J analysis is shown as the mean±SEM of three independent experiments. p-value was determined using a paired t-test. **p≤0.01. […] Whole-cell extracts were analyzed for G9a, GLP, GR, HP1γ and β-actin expression by immunoblot. […]

[1] = test system: GR target genes in A549 cells; assay: RT-qPCR of endogenous GR target genes in A549 cells; format: cell-based, human; conditions: 2 μM added 1 h prior to 100 nM dex
Method: RNA was isolated using Trizol (Invitrogen) according to the manufacturer's instructions. Reverse transcription reaction was performed using iScript (Biorad) according to specifications with 0.8 μg of total RNA as template. Quantitative PCR amplification of the resulting cDNA was performed on a Roche LightCycler 480 using SYBR green I master mix (Roche). mRNA levels were normalized to the level of β-actin mRNA. Primer sequences are specified below in Tables 6 and 7.
The results as shown in FIGS. 21A-21E generally highlight that G9a and GLP act as coactivators for a subset of endogenous GR target genes. FIG. 21A is an immunoblot showing GLP, G9a and tubulin protein levels in whole cell extracts from A549 cells that were transduced with a control lentivirus encoding a non-specific shRNA (shNS) or lentivirus encoding an shRNA targeting GLP (shGLP). […] Results shown are mean±SEM for five independent experiments. p-value was calculated using a paired t-test. *p≤0.05, **p≤0.01. For FIGS. 21F-1, 21F-2, 21F-3, 21F-4, 21F-5, 21F-6, 21F-7, and 21F-8, mRNA levels for the indicated GR target genes were determined as in FIGS. 21D-1, 21D-2, 21D-3, 21D-4, 21D-5, 21D-6, 21D-7, and 21D-8, using A549 cells which were not transfected with siRNA. […] Results shown are mean±SEM for at least four independent experiments. p-value was calculated using a paired t-test. *p≤0.05, **p≤0.01.

Clc1ccc(N/N=C(\c2ccccc2)c2ccccn2)nc1 [JIB-04, 5-chloro-N-[(E)-[phenyl(pyridin-2-yl)methylidene]amino]pyridin-2-amine]
dex-induced interaction between GR and HP1γ in PLA (GR-HP1γ interaction; A549 cells treated with dex and JIB-04): enhanced

COc1cc2c(NC3CCN(C4CCCCC4)CC3)nc(N3CCCN(C(C)C)CC3)nc2cc1OCCCN1CCCCC1 [UNC0646]
GR-HP1γ interaction in PLA (GR-HP1γ interaction; A549 cells, 2 μM UNC0646 24 h, 100 nM dex for the final 2 h): strongly decreased

COc1cc2c(Nc3ccc(NC(=O)c4ccccc4)cc3)ncnc2cc1OCCCN1CCOCC1 [ZM447439, N-[4-[[6-methoxy-7-(3-morpholin-4-ylpropoxy)quinazolin-4-yl]amino]phenyl]benzamide]
induction of FKBP5, FOXO1 and CITED2 mRNAs by dex ([1]; G9a- and GLP-independent genes): not significantly altered | dex-induced CDH16, ENaCα, PPL, HSD11B2 and CDH1 mRNA levels ([1]; G9a/GLP-dependent genes): significant increases

— patent US20200181284A1, “EPIGENETIC INHIBITORS FOR SENSITIZING HEMATOLOGIC OR OTHER MALIGNANCIES TO GLUCOCORTICOID THERAPY” (UNIVERSITY OF SOUTHERN CALIFORNIA, priority 2017, published 2020)
